Assay results as given in patent US20090221095A1, “Colorimetric Screening of DNA Binding/Intercalating Agents with Gold Nanoparticle Probes” (NORTHWESTERN UNIVERSITY, priority 2005, published 2009).
Values belong to the compound of their own block, whether it stands above or below them.

Tests used:
Assay type in all cases: binding
[1] = system: triplex DNA (NP-1/DNA-3/NP-2); assay: Colorimetric triplex binder assay: aggregation of NP-1, NP-2 gold nanoparticles and free DNA-3; conditions: NP-1 and NP-2 1.5 nM each, DNA-3 150 nM, binder 5 μM, 10 mM PBS pH 7.0, NaCl 0.5 M, room temperature
Excerpt: This method utilizes the aggregation-induced, red-to-blue color change associated with 13 nm gold (Au) nanoparticles. The assay consists of two sets of gold nanoparticles NP-1 and NP-2, and a free strand of DNA, DNA-3. […] DNA-3 is complementary to NP-1 with a two base dangling end to prevent noncross-linked NP-1 aggregation. When NP-1 and DNA-3 are combined, they form nonaggregate linking duplexes on the nanoparticle surface. […] However, introduction of a strong triplex binding agent, benzo[e]pyridoindole (BePl), stabilizes triplex formation through Hoogsteen-type Py-PaPy triplet base hydrogen bonds and induces nanoparticle aggregation resulting in a concomitant red-to-blue color change due to a red-shifting and dampening of the nanoparticle plasmon resonance (Scheme 1).
This assay is prepared by combining NP-1 and NP-2 (1.5 nM each) in a 1:1 molar ratio in 10 mM PBS buffer (pH=7.0, NaCl 0.5 M) with DNA-3 (150 nM) and BePl (5 μM). […] This stabilization results in a dramatic decrease in absorbance at 520 nm accompanied by a red-to-blue color change. Note that in the absence of DNA-3, NP-1 and NP-2 cannot form aggregates even in the presence of a strong triplex binder (FIG. 1B).
To further investigate the importance of the triplex structure and rule out aggregation due to duplex formation between the nanoparticles, the assay as set out in Example I was performed in the presence of seven additional duplex binders 4′,6-diamidino-2-phenylindole (DAPI), ellipticine (EIPT), amsacrine (AMSA), daunorubicin (DNR), anthraquinone-2-carboxylic acid (AQ2A), ethidium bromide (EB), and 9-aminoaclidine (9-AA)(5 μM).
In general, assay methods that can detect drug candidates by the naked eye, without resorting to any instrumentation, are convenient, and for this reason, an assay that could screen for triplex binders would be of great interest. At present, there are no assays that provide this capability. […] The mixtures of NP-1, NP-2 and DNA-3 containing the control and duplex intercalators remain red in color.

[2] = system: duplex DNA between NP-1 and NP-2; assay: Naked-eye color change of NP-1/NP-2 nanoassembly at specific temperatures; conditions: for color of nanoassembly: NP-1 and NP-2 1.5 nM each, intercalator 5 μM; for trend of intercalator binding affinities for DNA: from the color change with temperature
Excerpt: This method also utilizes the aggregation-induced, red-to-blue color change associated with 13 nm Au nanoparticles. Gold nanoparticles are functionalized with one of two complementary thiol-modified oligonucleotide strands and are denoted NP-1 and NP-2. When NP-1 and NP-2 are combined, they form aggregates through a reversible DNA hybridization process. This process results in a red-to-blue color change due to a red-shifting and dampening of the nanoparticle plasmon resonance. Increasing the temperature above the melting temperature of the DNA reverses the process, and the particles dissociate with a concomitant blue-to-red color change. […] This increased stability is reflected by an increase in melting temperature. Note that the shape and breadth of the transition is almost independent of the intercalator (FIG. 4). Therefore, by monitoring the blue-to-red color transition of hybridized oligonucleotide-modified Au nanoparticles in the presence of different compounds, the relative strength of intercalator binding can be determined with the naked-eye.
In general, assay methods that can detect drug candidates by the naked eye, without resorting to any instrumentation, are convenient, and for this reason, an assay that could seem for drug candidates based on DNA intercalation would be of great interest. […] As the temperature increases, the color change from blue to red occurs at specific temperatures. At 25° C. all eight cells (one control and seven intercalators) appear light blue/purple in color. At 30° C., the nanoassemblies containing the control and weak intercalators turn red in color leaving only the nanoassemblies containing DAPI, DNR, and EB as blue/purple.

[3] = system: duplex DNA on chip surface; assay: Chip-based scanometric detection of duplex DNA binders (silver enhancement); conditions: binder 5 μM
Protocol: N-Hydroxysuccinimide-activated Codelink glass microarray slides (Amersham, G. E. Healthcare) were arrayed with amine-terminated oligonucleotides (5′-TAA CAA TAA-A10-NH2-3′, Integrated DNA Technologies, Inc.) according to the manufacturer's protocol. The oligonucleotides were printed in triplicate using a GME 418 robotic pin-and-ring microarrayer (Affymetrix).
For scanometric detection of duplex or triplex DNA binding molecules, Au nanoparticles (1 nM) and DNA binding molecules (5 μM) in 10 mM PBS buffer of varying NaCl concentrations were added to the microarray slide under hybridization wells (Nanosphere, Inc.). For detection of triplex binders, 150 nM DNA-3 was added. DNA hybridization proceeded for 30 min (for duplex DNA binders) or 1 h (for triplex DNA binders) in a humidity chamber. After hybridization, the slides were washed three times with 0.5 M NaNO3 containing 0.02% Tween 20. The arrays were dried using a benchtop spinner. Silver enhancement solution (Nanosphere, Inc.) was added for Au-NP signal amplification (1 mL total volume/array, 1.5-min development time for duplex DNA binding molecules and 3 min for triplex binding molecules). The reaction was terminated by washing the slides with NANOpure® water and spin-drying. Light-scattering images from the silver-enhanced chips were recorded using the high-resolution Verigene ID system (Nanosphere, Inc.).
Capture strands of synthetic oligonucleotides are patterned on a glass chip using a microarrayer. The DNA chip is then exposed to DNA functionalized Au nanoparticles (complementary to the capture sequence) and a duplex DNA binder. […]
The hybridization of single stranded DNA to form duplex DNA is a reversible process and the stability of the duplex is affected by several factors such as temperature and salt concentration. […] Therefore, by performing the nanoparticle hybridization process in the presence of different duplex DNA binders as a function of temperature, the relative binding strength of duplex DNA binders can be determined.

SMILES: Nc1c2ccccc2nc2ccccc12 [9-AA, 9-aminoacridine]
- nanoparticle aggregation (decrease in absorbance at 520 nm, red-to-blue color change) [1]: no nanoparticle aggregation

SMILES: O=C(O)c1ccc2c(c1)C(=O)c1ccccc1C2=O [AQ2A, anthraquinone-2-carboxylic acid]
- nanoparticle aggregation (decrease in absorbance at 520 nm, red-to-blue color change) [1]: no nanoparticle aggregation

- trend of intercalator binding affinities for DNA [2]: DAPI>DNR˜EB>other intercalators
SMILES: N=C(N)c1ccc(-c2cc3ccc(C(=N)N)cc3[nH]2)cc1 [DAPI, 4′,6-diamidino-2-phenylindole]
- nanoparticle aggregation (decrease in absorbance at 520 nm, red-to-blue color change) [1]: no nanoparticle aggregation
- color of nanoassembly ([2]; 30° C.): blue/purple
- color of nanoassembly ([2]; 40° C.): turn red except the nanoassembly containing DAPI
- signal after silver enhancement ([3]; hybridization at 30° C.): leaving the intermediate and strong DNA binders
- signal after silver enhancement ([3]; temperature further increased above 30° C.): leaving only the strong duplex DNA binder

SMILES: COc1cccc2c1C(=O)c1c(O)c3c(c(O)c1C2=O)C[C@@](O)(C(C)=O)C[C@@H]3O[C@H]1C[C@H](N)[C@H](O)[C@H](C)O1 [DNR, daunorubicin]
- nanoparticle aggregation (decrease in absorbance at 520 nm, red-to-blue color change) [1]: no nanoparticle aggregation
- color of nanoassembly ([2]; 30° C.): blue/purple
- trend of intercalator binding affinities for DNA [2]: DAPI>DNR˜EB>other intercalators
- signal after silver enhancement ([3]; hybridization at 30° C.): leaving the intermediate and strong DNA binders

SMILES: Cc1c2ccncc2c(C)c2c1[nH]c1ccccc12 [EIPT, ellipticine]
- nanoparticle aggregation (decrease in absorbance at 520 nm, red-to-blue color change) [1]: no nanoparticle aggregation
